Where a name gives a salt, the structure may show the parent alone.
Key:
[1] = animals, intravenous route; cited from earlier work
[2] = test system: solid tumour; test: Tumour response (WHO criteria) in phase I study; format: in vivo, human
Text: British Journal of Cancer (1996) 73, 744-750 O (C? 1996 Stockton Press All rights reserved 0007-0920/96 $12.00 Phase I and pharmacological study of the new topoisomerase I inhibitor G1147211, using a daily x 5 intravenous administration CJH Gerrits', GJ Creemers', JHM Schellens', P Wissel2, AS Th Planting', R Kunka2, K Selinger2, M de Boer-Dennert', Y Marijnen3, M Harteveld' and J Verweijl 'Department of Medical Oncology, Rotterdam Cancer Institute, Rotterdam, The Netherlands; 2Glaxo Wellcome Inc, Department of Clinical Pharmacology, NC, USA; 3Glaxo Wellcome Inc, Department of Clinical Research, Zeist, The Netherlands. Summary Topoisomerase I inhibitors are interesting anti-cancer agents with a novel mechanism of action. […] In subsequent patient cohorts the dose was escalated from 0.3 to 1.5 mg m-2 day-'. Pharmacokinetics analysis was performed on days 1 and 4 of the first course using a validated high- performance liquid chromatographic assay and non-compartmental methods. […] Its further development was stopped because of unpredictable and severe myelosuppression, gastrointestinal toxicity and haemorrhagic cystitis. In the late 1980s two discoveries brought about a renewal of interest in CPT; firstly, topoisomerase I was identified as the single cellular target of CPT (Hsiang et al., 1985; Hsiang and Liu, 1988) and, secondly, an overexpression of topoisomerase I was found in various tumour cell lines but not in normal tissues (Giovanella et al., 1989; Hirabayaski et al., 1992; Potmesil et al., 1988). Topoisomerase I is a nuclear enzyme that resolves topological problems of the torsionally strained (supercoiled) DNA (Slichenmyer et al., 1993). This is achieved by forming a covalent adduct between topoisome- rase I and the DNA, termed the cleavable complex. This catalytic intermediate creates single-strand DNA breaks, allowing the DNA molecule to rotate around the intact DNA strand at the cleavage site, leading to a relaxation of the DNA molecule and in this way replication, transcription and other DNA functions can proceed. These enzyme- bridged breaks are then resealed by topoisomerase I. CPT stabilises the cleavable complexes, thereby preventing resealing of single-strand DNA breaks in the presence of the drug (Covey et al., 1989; D'Arpa and Liu, 1989; Eng et al., 1988). Cytotoxicity is specific to the S-phase of the cell cycle because the double-strand breaks that occur during this phase are more difficult to repair in the presence of the drug (Horwitz and Horwitz, 1973). […]

[3] = test system: bone marrow cultures; conditions: ref Emerson et al., 1995; cited from earlier work

## CC[C@@]1(O)C(=O)OCc2c1cc1n(c2=O)Cc2c-1nc1cc3c(cc1c2CN1CCN(C)CC1)OCCO3 [GI147211, [7 - (methylpiperazinomethylene) - 10,11 - ethylene-dioxy-20(S)] camptothecin dihydrochloride]
[1]
  main and dose-limiting toxicity: myelosuppression
[2]; 18 evaluable patients
  stable disease, patients: ten
[2]; liver metastasis of leiomyosarcoma of the stomach, after two courses
  response in leiomyosarcoma patient: minor response
[2]; metastatic colorectal cancer resistant to 5-FU/folinic acid, 18 evaluable patients
  partial response, patients: One
[2]; partial response, colorectal cancer
  duration of remission: 6 weeks
[3]
  myelotoxicity compared with topotecan: more myelotoxic than topotecan
